Patent US6583156B1 (Vernalis Research Limited, priority 1998, dated 2003)
Counter-ions that a name gives are not always drawn.

What was measured:
[1] = biological target: human adenosine A2A receptors (Homo sapiens, UniProt P29274); experiment: Binding affinities at hA2A receptors, displacement of [3H]-CGS 21680; conditions: in vitro binding, radioligand [3H]-CGS 21680
From the text: The compounds were examined in an assay measuring in vitro binding to human adenosine A2A receptors by determining the displacement of the adenosine A2A receptor selective radioligand [^3H]-CGS 21680 using standard techniques.

human adenosine A2A receptors, sequence (P29274 whole entry): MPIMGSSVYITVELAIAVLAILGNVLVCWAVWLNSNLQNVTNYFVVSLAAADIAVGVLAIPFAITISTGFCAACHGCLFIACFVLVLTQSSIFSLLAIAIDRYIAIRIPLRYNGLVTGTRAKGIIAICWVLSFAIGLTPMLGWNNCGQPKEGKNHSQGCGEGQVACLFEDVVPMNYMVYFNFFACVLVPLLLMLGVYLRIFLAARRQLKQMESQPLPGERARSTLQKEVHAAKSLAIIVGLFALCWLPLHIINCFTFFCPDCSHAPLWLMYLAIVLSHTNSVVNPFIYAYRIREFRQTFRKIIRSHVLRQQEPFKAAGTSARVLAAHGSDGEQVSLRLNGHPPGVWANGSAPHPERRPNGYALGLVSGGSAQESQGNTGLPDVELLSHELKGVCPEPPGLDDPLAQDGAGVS

| Structure (SMILES) | melting point | Ki [1] [nM] |
| --- | --- | --- |
| OC1(c2cc(C(F)(F)F)nc3ccccc23)CCSC1 (stereo not shown) [Example 44, 3-(2-trifluoromethyl-4-quinolinyl)tetrahydrothiophene-3-ol] | 130 to 131 °C |  |
| CCc1cccc2c(C(O)c3ccsc3)cc(C(F)(F)F)nc12 (stereo not drawn) [Example 32, 8-Ethyl-α-(3-thienyl)-2-trifluoromethyl-4-quinolinemethanol] |  | 1070 |
| OC(c1ccccc1Cl)c1cc(C(F)(F)F)nc2c(C(F)(F)F)cccc12 (stereo not drawn) [Example 18, 2,8-Bis(trifluoromethyl)-α-(2-chlorophenyl)-4-quinolinemethanol] |  | 1190 |
| Cc1cccc2c(C(O)C3CCCCC3)cc(C(F)(F)F)nc12 (stereo not drawn) [Example 29, α-Cyclohexyl-8-methyl-2-trifluoromethy-4-quinolinemethanol] |  | 965 |
| OC(c1ccccc1Br)c1cc(C(F)(F)F)nc2c(C(F)(F)F)cccc12 (stereo not drawn) [Example 21, 2,8-Bis(trifluoromethyl)-α-(2-bromophenyl)-4-quinolinemethanol] | 147 to 149 °C | 743 |
| OC(Cc1cc(C(F)(F)F)nc2c(C(F)(F)F)cccc12)c1ccccc1 (stereo not drawn) [Example 9, 2,8-Bis(trifluoromethyl)-α-phenyl-4-quinolineethanol] | 111 to 112 °C |  |
| OC(c1ccsc1)c1cc(C(F)(F)F)nc2c(C(F)(F)F)cccc12 (stereo not drawn) [Example 3, 2,8-Bis(trifluoromethyl)-α-(3-thienyl)-4-quinolinemethanol] |  | 954 |
| COc1cccc2c(C(O)c3ccsc3)cc(C(F)(F)F)nc12 (stereo not drawn) [Example 46, 8-Methoxy-α-(3-thienyl)-2-trifluoromethyl-4-quinolinemethanol] | 157 to 158 °C |  |
| Cc1c(C(F)(F)F)nc2c(C(F)(F)F)cccc2c1C(O)c1cccs1 (stereo not drawn) [Example 16, 2,8-Bis(trifluoromethyl)-3-methyl-α-(2-thienyl)-4-quinolinemethanol] | 125.1 to 125.8 °C | 1790 |
| COc1cc(C(O)C2CCCCC2)c2ccccc2n1.Cl (stereo not shown) | 155.9 to 156.3 °C |  |
| COc1ccccc1C(O)c1cc(C(F)(F)F)nc2c(C(F)(F)F)cccc12 (stereo not shown) [Example 23] | 132 to 134 °C | 701 |
| CN(C)c1cc(C(O)c2ccccc2)c2ccccc2n1 (stereo not drawn) [Example 35, 2-Dimethylamino-α-phenyl-4-quinolinemethanol] | 153.6 to 154.3 °C |  |
| Cc1cccc2c(C(O)c3ccccc3Cl)cc(C(F)(F)F)nc12 (stereo not drawn) [Example 27, α-(2-Chlorophenyl)-8-methyl-2-trinfluoromethyl-4-quinolinemethanol] |  | 1130 |
| OC(c1cccs1)c1cc(C(F)(F)F)nc2c(C(F)(F)F)cccc12 (stereo not drawn) [Example 2, 2,8-Bis(trifluoromethyl)-α-(2-thienyl)-4-quinolinemethanol] |  | 1550 |
| OC1(c2cc(C(F)(F)F)nc3c(C(F)(F)F)cccc23)CCCc2ccccc21 (stereo not shown) [Example 11, 1-(2,8-Bis(trifluoromethyl)-4-quinolinyl)-1,2,3,4-tetrabydro-1-naphthol] | 128.8 to 129.4 °C | 1360 |
| OC(c1ccsc1)c1cc(-c2ccccc2)nc2ccccc12 (stereo not drawn) [Example 41, 2-Phenyl-α-(3-thienyl)-4-quinolinemethanol] | 158 to 159 °C |  |

| Structure (SMILES) | melting point | Ki [1] [nM] |
| --- | --- | --- |
| OC(c1cc(C(F)(F)F)nc2c(C(F)(F)F)cccc12)C1CCCCC1 (stereo not drawn) [Example 7, 2,8-Bis(trifluoromethyl)-α-clohexyl-4-quinolinemethanol] |  | 852 |
| Cc1cccc2c(C(O)c3ccsc3)cc(C(F)(F)F)nc12 (stereo not drawn) [Example 28, 8-Methyl-α-(3-thienyl)-2-trifluoromethyl-4-quinolinemethanol] | 113 to 114 °C | 574 |
| Cc1cc(C(O)c2ccsc2)c2ccccc2n1 (stereo not drawn) (as salt: salt) [Example 42, 2-Methyl-α-(3-thienyl)-4-quinolinemethanol] | 200 °C (dec.) |  |
| O=[N+]([O-])c1ccccc1C(O)c1cc(C(F)(F)F)nc2c(C(F)(F)F)cccc12 (stereo not drawn) [Example 19, 2,8-Bis(trifluoromethyl)-α-(2-nitrophenyl)-4-quinolinemethanol] |  | 1740 |
| OC(c1cc(C(F)(F)F)nc2c(C(F)(F)F)cccc12)c1cc(C(F)(F)F)nc2c(C(F)(F)F)cccc12 [Example 8, Bis(2,8-bis(trifluoromethyl)-4-quinolinyl)methanol] | 198 to 199 °C |  |
| OC(c1ccco1)c1cc(C(F)(F)F)nc2c(C(F)(F)F)cccc12 (stereo not drawn) [Example 4, 2,8-Bis(trifluoromethyl)-α-(2-furyl)-4-quinolinemethanol] |  | 1120 |
| CCc1cccc2c(C(O)c3ccccc3)cc(C(F)(F)F)nc12 (stereo not drawn) [Example 31, 8-Ethyl-α-phenyl-2-trifluoromethy-4-quinolinemethanol] | 102 to 104 °C | 1770 |
| Cc1cc(C(O)c2ccccc2)c2ccccc2n1 (stereo not drawn) (as salt: salt) [Example 39, 2-Methyl-α-phenyl-4-quinolinemethanol] | 192 °C (dec.) |  |
| OC1Cc2ccccc2C1c1cc(C(F)(F)F)nc2c(C(F)(F)F)cccc12 (stereo not shown) [Example 12, 1-(2,8-Bis(trifluorometbyl)-4-quinolinyl)-2-indanol] |  | 1900 |
| OC(c1ccccc1)c1cc(C(F)(F)F)nc2c(C(F)(F)F)cccc12 (stereo not drawn) [Example 1, 2,8-Bis(trinfluoromethyl)-α-phenyl-4-quinolinemethanol] | 151 to 152 °C | 1700 |
| OC(c1c(Cl)cccc1Cl)c1cc(C(F)(F)F)nc2c(C(F)(F)F)cccc12 (stereo not drawn) [Example 20, 2,8-Bis(trifluoromethyl)-α-(2,6-dichlorophenyl)-4-quinolinemethanol] | 151.2 to 151.7 °C | 649 |
| Cc1cccc2c(C(O)c3ccccc3)cc(C(F)(F)F)nc12 (stereo not drawn) [Example 26, 8-Methyl-α-phenyl-2-trifluoromethyl-4-quinolinemethanol] |  | 1110 |
| OC1(c2cc(C(F)(F)F)nc3c(C(F)(F)F)cccc23)CCc2ccccc21 (stereo not shown) [Example 10, 1-(2,8-Bis(tnfluoromethyl)-4-quinolinyl)-1-indanol] |  | 1750 |
| OC(c1ccoc1)c1cc(C(F)(F)F)nc2c(C(F)(F)F)cccc12 (stereo not drawn) [Example 5, 2,8-Bis(trifluoromethyl)-α-(3-furyl)-4-quinolinemethanol] |  | 1030 |
| OC(c1ccsc1)c1cc(C(F)(F)F)nc2ccccc12 (stereo not drawn) [Example 43, α-(3-Thienyl)-2-trifluoromethyl-4-quinolinemethanol] | 144 to 146 °C |  |

The remaining lines, values ahead:

| melting point | Ki [1] [nM] | Structure (SMILES) |
| --- | --- | --- |
| 73 to 74 °C |  | OC1(c2cc(C(F)(F)F)nc3c(C(F)(F)F)cccc23)C=CCC1 (stereo not shown) [Example 53, 1-(2,8-Bis(trifluoromethyl)-4-quinolinyl)cyclopent-2-ene-1-ol] |
| 122.5 to 123.1 °C |  | OC(c1cc(NCc2ccccc2)nc2ccccc12)C1CCCCC1 (stereo not drawn) [Example 79, 2-Benzylamino-α-cyclohexyl-4-quinolinemethanol] |
| 155 to 157 °C |  | Cc1cc(C(O)C2CCCCC2)c2cccc(C)c2n1 (stereo not drawn) [Example 54, α-Cyclohexyl-2,8-dimethyl-4-quinolinemethanol] |
| 144 to 146 °C |  | OC(c1ccccc1)c1cc(Cl)nc2ccccc12 (stereo not drawn) [Example 83, 2-Chloro-α-phenyl-4-quinolinemethanol] |
| 111 to 112 °C |  | OC(c1ccccc1)c1cc(-c2ccccc2)nc2ccccc12 (stereo not drawn) [Example 91, 2,α-Diphenyl-4-quinolinemethanol] |
| 149 °C (dec.) |  | Cc1cccc2c(C(O)c3ccccn3)cc(Br)nc12 (stereo not drawn) [Example 64, 2-Bromo-8-methyl-α-(2-pyridyl)-4-quinolinemethanol] |
| 126.8 to 127.6 °C |  | COc1cc(C(O)c2ccccn2)c2cccc(C)c2n1 (stereo not drawn) [Example 67, 2-Methoxy-8-methyl-α-(2-pyridyl)-4-quinolinemethanol] |
| 145.9 to 146.2 °C |  | Nc1ccccc1C(O)c1cc(C(F)(F)F)nc2c(C(F)(F)F)cccc12 (stereo not drawn) [Example 76, α-(2-Aminophenyl)-2,8-bis(trifluoromethyl)-4-quinolinemethanol] |
| 173 °C (dec.) |  | OC(c1cccs1)c1ccnc2ccccc12 (stereo not drawn) (as salt: salt) [Example 49, α-(2-Thienyl)-4-quinolinemethanol] |
| 123 to 124 °C |  | OC(Cc1cc(C(F)(F)F)nc2c(C(F)(F)F)cccc12)c1cc2ccccc2o1 (stereo not drawn) [Example 51, α-(2-Benzofuranyl)-2,8-bis(trifluoromethyl)-4-quinolineethanol] |
| 130.7 to 131.8 °C |  | Cc1cccc2c(C(O)c3ccccc3)cc(Br)nc12 (stereo not drawn) [Example 65, 2-Bromo-8-methyl-α-phenyl-4-quinolinemethanol] |
| 152.8 to 153.3 °C |  | O=C(NCc1ccccc1)c1cc(C(O)C2CCCCC2)c2ccccc2n1 (stereo not shown) [Example 61, N-Benzyl-4-(1-cyclohexyl-1-hydroxymethyl)-2-quinolinecarboxamide] |
|  | 1630 | Oc1ccc(C(O)c2cc(C(F)(F)F)nc3c(C(F)(F)F)cccc23)cc1 (stereo not drawn) [Example 74, 2,8-Bis(trifluoromethyl)-α-(4-hydroxyphenyl)-4-quinolinemethanol] |
| 82 to 83 °C |  | FC(F)(F)c1cc(-c2ccco2)c2cccc(C(F)(F)F)c2n1 [Example 93, 2,8-Bis(trifluoromethyl)-4-(2-furanyl)quinoline] |
|  | 1070 | OC(c1ccsc1)c1cc(C(F)(F)F)nc2c(Cl)cccc12 (stereo not drawn) [Example 47, 8-Chloro-α-(3-thienyl)-2-trifluoromethyl-4-quinolinemethanol] |
|  | 1520 | CC(O)(c1cc2ccccc2o1)c1cc(C(F)(F)F)nc2c(C(F)(F)F)cccc12 (stereo not shown) [Example 51] |
| > 350 °C |  | Oc1cc(C(O)(c2ccccc2)c2ccccc2)c2ccccc2n1 [Example 90, α,α-Diphenyl-2-hydroxy-4-quinolinemethanol] |
| 120.6 to 120.9 °C |  | OCCCCC(O)c1cc(C(F)(F)F)nc2c(C(F)(F)F)cccc12 (stereo not shown) [Example 82, 1-(2,8-Bis(trifluoromethyl)-4-quinolinyl)-5-hydroxypentanol] |
| 215 °C (dec.) |  | Cc1cccc2c(C(O)c3ccccn3)cc(O)nc12 (stereo not drawn) [Example 88, 2-Hydroxy-8-methyl-α-(2-pyridyl)-4-quinolinemethanol] |
